{"source": "patent US6699861B1", "about": "“Anti-quinazoline compounds” (Cancer Research Technology Limited, priority 1999, dated 2004)", "key": {"[1]": {"test_system": "W1L2 cells", "assay": "Growth inhibition of W1L2 in presence of folate metabolites (dThd/HX)", "assay_type": "cell-based, human", "conditions": "Homo sapiens; in the presence of 10 μM thymidine (dThd) and 50 μM hypoxantine (HX); read-out: Inhibition of Cell Growth IC50, W1L2 + dThd/HX (C)", "method": "Growth inhibition assays as described above were performed in W1L2 cells where compounds were incubated in the presence of 10 μM thymidine (dThd) and 50 μM hypoxantine (HX) (purchased from Sigma Chemical Co.)."}, "[2]": {"conditions": "background statement on the known compound; cited from earlier work"}, "[3]": {"test_system": "W1L2 human lymphoblastoid cells", "assay": "Growth inhibition of W1L2 cells", "assay_type": "cell-based"}, "[4]": {"test_system": "W1L2:R865 cell line", "assay": "Growth inhibition of W1L2:R865 cells (acquired resistance to CB 30865)", "assay_type": "cell-based, human", "conditions": "72 h growth inhibition assay (Coulter counts), read-out: Inhibition of Cell Growth IC50, W1L2:R865 (D)", "method": "A cell line was raised with acquired resistance to CB 30865, denoted W1L2:R865, by stepwise selection over ˜9 months.\nThe generated W1L2:R865 cell line was routinely cultured in 0.03 μm CB 30865 under the same conditions as W1L2 cells, with cells being grown in the absence of CB 30865 for ˜2 weeks before an experiment.\nThe activity of compounds against W1L2:R865 cells was determined within parallel experiments by 72 h growth inhibition assay (Coulter counts). CB 30865 was included in every experiment as an internal control."}, "[5]": {"test_system": "W1L2:C1 cells", "assay": "Growth inhibition of W1L2:C1 cells (elevated TS)", "assay_type": "cell-based, human", "conditions": "read-out: Inhibition of Cell Growth IC50, W1L2:C1 (B)", "method": "(§1) W1L2 human lymphoblastoid, W1L2:C1 (elevated TS; O'Connor et al, Cancer Res, 52, 1137-1143 (1992)) and L1210 mouse leukaemia cells were cultured in suspension and A2780, PXN94, 41M, HX62, SKOV3 (human ovarian carcinoma), MCF-7 (human breast carcinoma), HT29 and SW480 (human colon carcinoma) cell lines were grown as monolayers as described in Jackman et al, Cancer Res, 50, 5212-5218 (1990) and Jackman et al, Br. J. Cancer, 71, 914-924 (1995).\n(§2) Growth inhibition studies with suspension cells were performed as described in Jackman et al, Cancer Res, 50, 5212-5218 (1990). Activity against the adherent cell lines was assessed by MTT assay (Twentyman et al, Br. J. Cancer, 56, 279-285 (1987)) where cells were seeded in 96-well plates at 1000-3000 cells per well, incubated overnight and then exposed to the appropriate drug concentrations for 96-120 h."}, "[6]": {"test_system": "HT29 cells", "assay": "In vitro sensitivity of HT29 cells compared with CH1 cells", "assay_type": "cell-based, human", "method": "as §1, §2"}, "[7]": {"test_system": "CH1 ovarian carcinoma cell line", "assay": "Hollow fibre assay, CH1 cells", "assay_type": "in vivo, nude mice", "conditions": "for O.D. as % control: harvested day 5", "method": "(§3) As adopted by the NCI, the hollow fibre assay (Hollingshead et al. 1995, Life Sciences, 57: 13 1-141) was used as an initial means of assessing the in vivo antitumour activity of CB 300919.\n(§4) The hollow fibre assay was performed using the CH1 ovarian carcinoma cell line and the HT29 colon line.\n(§5) Results are expressed as a % Treated/Control (T/C)."}, "[8]": {"target": "mouse thymidylate synthase (TS) (Mus musculus, UniProt P07607)", "sequence (P07607 whole entry)": "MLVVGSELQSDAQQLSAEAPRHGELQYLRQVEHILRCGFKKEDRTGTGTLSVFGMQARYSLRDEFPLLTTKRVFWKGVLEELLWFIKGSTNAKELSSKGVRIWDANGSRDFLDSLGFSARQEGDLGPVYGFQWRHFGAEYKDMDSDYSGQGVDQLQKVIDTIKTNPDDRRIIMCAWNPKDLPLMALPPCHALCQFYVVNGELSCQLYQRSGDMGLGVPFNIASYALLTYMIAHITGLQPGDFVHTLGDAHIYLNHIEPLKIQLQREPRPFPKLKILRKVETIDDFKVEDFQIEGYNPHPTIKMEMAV", "assay": "Inhibition of L1210 thymidylate synthase (TS)"}, "[9]": {"assay": "Tolerability (weight loss, deaths, MTD) in nude mice", "experimental": "One day later (day 1), CB 300919 was administered by ip injection, daily for 3 days (days 1-3).\nMice injected with CB 300919 i.p. on days 1-3."}, "[10]": {"assay": "MTD in DBA2 mice", "conditions": "mouse, in vivo", "method": "MTD in DBA2 mice ˜1.5 mg/kg/d×3 days."}, "[11]": {"test_system": "HT29 colon line", "assay": "Hollow fibre assay, HT29 cells", "assay_type": "in vivo, nude mice", "conditions": "for O.D. as % control: harvested day 5", "method": "as §3, §4, §5"}, "[12]": {"conditions": "0.25 mg/kg/d i.p. daily x 3 days"}, "[13]": {"conditions": "0.50 mg/kg/d i.p. daily x 3 days"}, "[14]": {"conditions": "0.75 mg/kg/d i.p. daily x 3 days"}}, "note": "Where “and” joins values, the source holds several entries; their conditions need not be identical. Equal entries are not always repeated. Where two headings read alike, the source gives them in different places.", "data": [{"smiles": "C#CCN(Cc1cc2c(=O)[nH]c(C)nc2cc1Br)c1ccc(C(=O)NCc2cccnc2)cc1", "note": "[CB30865, 4-[N-[7-bromo-2-methyl-4-oxo-3,4-dihydroquinazolin-6-ylmethyl]-N-(prop-2-ynyl)amino]-N-(3-pyridylmethyl)benzamide, reference compound]", "values": [{"measurement": "IC50", "setting": "[1]", "result": "2.2 ± 0.82", "unit": "nM"}, {"measurement": "water-solubility", "setting": "[2]", "result": "very low water-solubility"}, {"measurement": "IC50", "setting": "[3]; Homo sapiens, Lymphoblastoid cell, W1L2 suspension cells, read-out: Inhibition of Cell Growth IC50, W1L2 (B)", "result": "2.8 ± 0.5", "unit": "nM"}, {"measurement": "IC50", "setting": "[3]; Homo sapiens, Lymphoblastoid cell, W1L2 cells, 72 h, read-out: 72 h IC50", "result": 2.8, "unit": "nM"}, {"measurement": "IC50", "setting": "[4]; Homo sapiens", "result": 610, "unit": "nM"}, {"measurement": "IC50", "setting": "[5]; Homo sapiens", "result": "2.3 ± 0.15", "unit": "nM"}]}, {"smiles": "C#CCN(Cc1cc2c(=O)n(C)c(CN3CCN(C)CC3)nc2cc1Cl)c1ccc(C(=O)NCc2cccnc2)cc1", "note": "[CB300919, 4-[N-[7-Chloro-3-methyl-2-(4-methyl-piperazin-1-yl)methyl-4-oxo-3,4-dihydroquinazolin-6-ylmethyl]-N-(prop-2-ynyl)amino]-N-(3-pyridylmethyl)benzamide]", "values": [{"measurement": "IC50", "setting": "[1]", "result": 0.32, "unit": "nM"}, {"measurement": "lower sensitivity of HT29 cells in vitro", "setting": "[6]", "result": "~10", "unit": "fold"}, {"measurement": "optical density (% Treated/Control)", "setting": "[7]; CH1 cells in the fibres, all doses given IP (0.25-0.75 mg/kg/day×3 days)", "result": "< 15", "unit": "%"}, {"measurement": "O.D. as % control", "setting": "[7]; CH1 ovarian, 0.25 mg/kg/d i.p. daily x 3 days", "result": 13, "unit": "%"}, {"measurement": "O.D. as % control", "setting": "[7]; CH1 ovarian, 0.50 mg/kg/d i.p. daily x 3 days", "result": 13, "unit": "%"}, {"measurement": "O.D. as % control", "setting": "[7]; CH1 ovarian, 0.75 mg/kg/d i.p. daily x 3 days", "result": 13, "unit": "%"}, {"measurement": "Dose to give 50% inhibition of tumour growth", "setting": "[7]; CH1 ovarian, i.p. daily x 3 days", "result": "<0.25", "unit": "mg/kg/day"}, {"measurement": "IC50", "setting": "[3]; W1L2 suspension cells, read-out: Inhibition of Cell Growth IC50, W1L2 (B)", "result": "0.49 ± 0.24", "unit": "nM"}, {"measurement": "Inhibition of L1210 TS (A) IRP* (inverse relative potency)", "setting": "[8]", "result": ">2500"}, {"measurement": "IC50", "setting": "[4]", "result": "13000 ± 4500", "unit": "nM"}, {"measurement": "Weight loss (up to day 5)", "setting": "[9]; [12]", "result": "No sig. wt. loss"}, {"measurement": "Weight loss (up to day 5)", "setting": "[9]; [13]", "result": "0-19% wt. loss"}, {"measurement": "Weight loss (up to day 5)", "setting": "[9]; [14]", "result": "9-22% wt. loss"}, {"measurement": "Comments: mice killed", "setting": "[9]; 0.75 mg/kg/d i.p. daily x 3 days, d4, 22% wt. loss", "result": "⅓ killed (d4; 22% wt. loss"}, {"measurement": "MTD at 3 days", "setting": "[9]; nude, mouse, in vivo, intraperitoneal", "result": "0.5 to 0.75", "unit": "mg/kg/day"}, {"measurement": "IC50", "setting": "[5]", "result": "0.44 nM and 0.28 nM"}, {"measurement": "MTD at 3 days", "setting": "[10]", "result": "~1.5", "unit": "mg/kg/day"}, {"measurement": "O.D. as % control", "setting": "[11]; [12]", "result": 92, "unit": "%"}, {"measurement": "O.D. as % control", "setting": "[11]; [13]", "result": 34, "unit": "%"}, {"measurement": "O.D. as % control", "setting": "[11]; [14]", "result": 29, "unit": "%"}, {"measurement": "Dose to give 50% inhibition of tumour growth", "setting": "[11]; i.p. daily x 3 days", "result": 0.4, "unit": "mg/kg/day"}]}]}
